The numbers were not newly measured in patent US12292444B2, “Methods and compositions related to modified green fluorescent protein (GFP) with an embedded foreign peptide” (University of South Florida, priority 2020, dated 2025), which cites them from elsewhere.

The data set has as its system Gram-negative bacteria, such as Escherichia coli, Pseudomonas aeruginosa, and Salmonella typhimurium. The following applies: Wu 1999.

As for “Bactenecin: Antimicrobial peptide synthesized by neutrophils, used as substitute of the central α-helix in GFP (RLCRIVSYGVIRVCRR; listed as Aequorea victoria)”, the “activity against Gram-negative bacteria” value is on record as “has an activity”.
